Earlier results on 4 molecules are cited in patent US8613946B2, “Carotenoids of enhanced bioavailability” (ISP Investment Inc., priority 2006, dated 2013).

Like-named read-outs stand apart in the source and are kept apart here.

Setting [1] is: classification of The Merck Index.

As to `CC1=C[C@H](O)CC(C)(C)[C@H]1/C=C/C(C)=C/C=C/C(C)=C/C=C/C=C(C)/C=C/C=C(C)/C=C/C1=C(C)C[C@@H](O)CC1(C)C` [lutein], the solubility in water result under setting [1] was “insoluble in water”.
`CC(C)=CCC/C(C)=C/C=C/C(C)=C/C=C/C(C)=C/C=C/C=C(C)/C=C/C=C(C)/C=C/C=C(\C)CCC=C(C)C` [lycopene]: where the note is “statement of The PDR For Nutritional Supplements”, the solubility in water result was “insoluble in water”.
As to `CC1=CCCC(C)(C)C1/C=C/C(C)=C/C=C/C(C)=C/C=C/C=C(C)/C=C/C=C(C)/C=C/C1=C(C)CCCC1(C)C` (stereo not drawn) [α-carotene], the solubility in water result under setting [1] is “practically insoluble in water”.
`CC1=C(/C=C/C(C)=C/C=C/C(C)=C/C=C/C=C(C)/C=C/C=C(C)/C=C/C2=C(C)CCCC2(C)C)C(C)(C)CCC1` [β-carotene]: the solubility in water entry under setting [1] is “practically insoluble in water”.
